Reference: patent US8936916B2, “Polypeptides for microbial detection” (3M Innovative Properties Company, priority 2008, dated 2015)
Ends that are not written are not given here. * marks the point of attachment. Myristoyl = CCCCCCCCCCCCCC(=O)*

Test: Permeabilization of DPPC liposomes containing glucose oxidase by phosphorylated dermatoxin (absorbance at 538 nm)
Type: biochemical
Experimental: DPPC liposomes containing 5 mg/mL glucose oxidase were prepared as described in Example 2. Glucose oxidase activity was measured in a coupled enzyme reaction with horseradish peroxidase as described in Example 2. The various solutions were quickly added to each of the wells of a microplate using a multichannel pipette and the reactions were started (at T=0 hours) with the addition to the wells of a solution containing glucose and 4-AAP.
The ability of the phosphorylated dermatoxin to open liposomes in the presence of phosphatase was tested by preparing a developing solution as described in Example 2. One hundred-fifty microliters of the developing solution was placed in each well of a 96-well microplate. To each column in the plate was added 20 μL of TES buffer containing one of the following concentrations of unpurified dermatoxin: 3.3 mg/mL, 3.3×10^−1 mg/mL, 3.3×10^−2 mg/mL, 3.3×10^−3 mg/mL, 3.3×10^−4 mg/mL, 3.3×10^−5 mg/mL, 3.3×10^−6 mg/mL, or 3.3×10^−7 mg/mL. Negative control wells contained TES buffer with no dermatoxin. Positive control wells buffer contained TES buffer with Triton X-100. Ten-microliter aliquots of the following concentrations of DPPC liposomes (containing 5 mg/mL glucose oxidase) were added to wells in duplicate rows: 0.1 mg lipid/mL, 0.02 mg lipid/mL, 0.004 mg lipid/mL, or plain buffer. To one of the duplicate rows was added 20 μL of 2.5 mg/mL alkaline phosphatase in TES. The other duplicate row received 20 μL of TES buffer. Thus the final dermatoxin concentration in the well varied from […], and the final lipid concentration in the well ranged from 0.005 mg lipid/mL to 2.0×10^−4 mg lipid/mL.
The absorbance was recorded at 538 nm on a SpectraMax M5 plate reader (Molecular Devices, Sunnyvale, Calif.) after two hours incubation at room temperature, and also after overnight incubation (approximately 18 hours). Since the absorbance of several wells was saturated, the overnight samples were diluted 1:10 with 50 mmol TES and the absorbance of the diluted samples was measured.

## SLGSFLKGVGTTLASVGKVVSDQFGKLLQAGQ (Myristoyl-SLGSFLKGVGTTLASVGKVVSDQFGKLLQAGQ; also: phosphorylated) [phosphorylated dermatoxin, fully phosphorylated dermatoxin, unpurified crude preparation]
2 hrs, lipid conc. 0, dermatoxin mass 3.3 × 10^−5 mg, with phosphatase
  Absorbance at 538 nm (cytolytic peptide activity): 0.122 absorbance units
2 hrs, lipid conc. 0, dermatoxin mass 3.3 × 10^−5 mg, without phosphatase
  Absorbance at 538 nm (cytolytic peptide activity): 0.121 absorbance units
2 hrs, lipid conc. 0, dermatoxin mass 3.3 × 10^−6 mg, with phosphatase
  Absorbance at 538 nm (cytolytic peptide activity): 0.120 absorbance units
2 hrs, lipid conc. 0, dermatoxin mass 3.3 × 10^−6 mg, without phosphatase
  Absorbance at 538 nm (cytolytic peptide activity): 0.115 absorbance units
2 hrs, lipid conc. 0, dermatoxin mass 3.3 × 10^−7 mg, with phosphatase
  Absorbance at 538 nm (cytolytic peptide activity): 0.118 absorbance units
2 hrs, lipid conc. 0, dermatoxin mass 3.3 × 10^−7 mg, without phosphatase
  Absorbance at 538 nm (cytolytic peptide activity): 0.116 absorbance units
2 hrs, lipid conc. 0, dermatoxin mass 3.3 × 10^−8 mg, with phosphatase
  Absorbance at 538 nm (cytolytic peptide activity): 0.119 absorbance units
2 hrs, lipid conc. 0, dermatoxin mass 3.3 × 10^−8 mg, without phosphatase
  Absorbance at 538 nm (cytolytic peptide activity): 0.114 absorbance units
2 hrs, lipid conc. 0, dermatoxin mass 3.3 × 10^−9 mg, with phosphatase
  Absorbance at 538 nm (cytolytic peptide activity): 0.118 absorbance units
2 hrs, lipid conc. 0, dermatoxin mass 3.3 × 10^−9 mg, without phosphatase
  Absorbance at 538 nm (cytolytic peptide activity): 0.113 absorbance units
2 hrs, lipid conc. 0.004, dermatoxin mass 3.3 × 10^−5 mg, with phosphatase
  Absorbance at 538 nm (cytolytic peptide activity): 0.204 absorbance units
2 hrs, lipid conc. 0.004, dermatoxin mass 3.3 × 10^−5 mg, without phosphatase
  Absorbance at 538 nm (cytolytic peptide activity): 0.200 absorbance units
2 hrs, lipid conc. 0.004, dermatoxin mass 3.3 × 10^−6 mg, with phosphatase
  Absorbance at 538 nm (cytolytic peptide activity): 0.197 absorbance units
2 hrs, lipid conc. 0.004, dermatoxin mass 3.3 × 10^−6 mg, without phosphatase
  Absorbance at 538 nm (cytolytic peptide activity): 0.161 absorbance units
2 hrs, lipid conc. 0.004, dermatoxin mass 3.3 × 10^−7 mg, with phosphatase
  Absorbance at 538 nm (cytolytic peptide activity): 0.130 absorbance units
2 hrs, lipid conc. 0.004, dermatoxin mass 3.3 × 10^−7 mg, without phosphatase
  Absorbance at 538 nm (cytolytic peptide activity): 0.119 absorbance units
2 hrs, lipid conc. 0.004, dermatoxin mass 3.3 × 10^−8 mg, with phosphatase
  Absorbance at 538 nm (cytolytic peptide activity): 0.126 absorbance units
2 hrs, lipid conc. 0.004, dermatoxin mass 3.3 × 10^−8 mg, without phosphatase
  Absorbance at 538 nm (cytolytic peptide activity): 0.111 absorbance units
2 hrs, lipid conc. 0.004, dermatoxin mass 3.3 × 10^−9 mg, with phosphatase
  Absorbance at 538 nm (cytolytic peptide activity): 0.126 absorbance units
2 hrs, lipid conc. 0.004, dermatoxin mass 3.3 × 10^−9 mg, without phosphatase
  Absorbance at 538 nm (cytolytic peptide activity): 0.115 absorbance units
2 hrs, lipid conc. 0.02, dermatoxin mass 3.3 × 10^−5 mg, with phosphatase
  Absorbance at 538 nm (cytolytic peptide activity): 0.546 absorbance units
2 hrs, lipid conc. 0.02, dermatoxin mass 3.3 × 10^−5 mg, without phosphatase
  Absorbance at 538 nm (cytolytic peptide activity): 0.633 absorbance units
2 hrs, lipid conc. 0.02, dermatoxin mass 3.3 × 10^−6 mg, with phosphatase
  Absorbance at 538 nm (cytolytic peptide activity): 0.480 absorbance units
2 hrs, lipid conc. 0.02, dermatoxin mass 3.3 × 10^−6 mg, without phosphatase
  Absorbance at 538 nm (cytolytic peptide activity): 0.263 absorbance units
2 hrs, lipid conc. 0.02, dermatoxin mass 3.3 × 10^−7 mg, with phosphatase
  Absorbance at 538 nm (cytolytic peptide activity): 0.140 absorbance units
2 hrs, lipid conc. 0.02, dermatoxin mass 3.3 × 10^−7 mg, without phosphatase
  Absorbance at 538 nm (cytolytic peptide activity): 0.141 absorbance units
2 hrs, lipid conc. 0.02, dermatoxin mass 3.3 × 10^−8 mg, with phosphatase
  Absorbance at 538 nm (cytolytic peptide activity): 0.132 absorbance units
2 hrs, lipid conc. 0.02, dermatoxin mass 3.3 × 10^−8 mg, without phosphatase
  Absorbance at 538 nm (cytolytic peptide activity): 0.111 absorbance units
2 hrs, lipid conc. 0.02, dermatoxin mass 3.3 × 10^−9 mg, with phosphatase
  Absorbance at 538 nm (cytolytic peptide activity): 0.124 absorbance units
2 hrs, lipid conc. 0.02, dermatoxin mass 3.3 × 10^−9 mg, without phosphatase
  Absorbance at 538 nm (cytolytic peptide activity): 0.114 absorbance units
2 hrs, lipid conc. 0.1, dermatoxin mass 3.3 × 10^−5 mg, with phosphatase
  Absorbance at 538 nm (cytolytic peptide activity): 2.034 absorbance units
2 hrs, lipid conc. 0.1, dermatoxin mass 3.3 × 10^−5 mg, without phosphatase
  Absorbance at 538 nm (cytolytic peptide activity): 1.521 absorbance units
2 hrs, lipid conc. 0.1, dermatoxin mass 3.3 × 10^−6 mg, with phosphatase
  Absorbance at 538 nm (cytolytic peptide activity): 1.473 absorbance units
2 hrs, lipid conc. 0.1, dermatoxin mass 3.3 × 10^−6 mg, without phosphatase
  Absorbance at 538 nm (cytolytic peptide activity): 0.759 absorbance units
2 hrs, lipid conc. 0.1, dermatoxin mass 3.3 × 10^−7 mg, with phosphatase
  Absorbance at 538 nm (cytolytic peptide activity): 0.173 absorbance units
2 hrs, lipid conc. 0.1, dermatoxin mass 3.3 × 10^−7 mg, without phosphatase
  Absorbance at 538 nm (cytolytic peptide activity): 0.267 absorbance units
2 hrs, lipid conc. 0.1, dermatoxin mass 3.3 × 10^−8 mg, with phosphatase
  Absorbance at 538 nm (cytolytic peptide activity): 0.136 absorbance units
2 hrs, lipid conc. 0.1, dermatoxin mass 3.3 × 10^−8 mg, without phosphatase
  Absorbance at 538 nm (cytolytic peptide activity): 0.132 absorbance units
2 hrs, lipid conc. 0.1, dermatoxin mass 3.3 × 10^−9 mg, with phosphatase
  Absorbance at 538 nm (cytolytic peptide activity): 0.134 absorbance units
2 hrs, lipid conc. 0.1, dermatoxin mass 3.3 × 10^−9 mg, without phosphatase
  Absorbance at 538 nm (cytolytic peptide activity): 0.121 absorbance units
18 hrs (d), 1:10-diluted sample, lipid conc. 0, dermatoxin mass 3.3 × 10^−5 mg, with phosphatase
  Absorbance at 538 nm (cytolytic peptide activity): 0.053 absorbance units
18 hrs (d), 1:10-diluted sample, lipid conc. 0, dermatoxin mass 3.3 × 10^−5 mg, without phosphatase
  Absorbance at 538 nm (cytolytic peptide activity): 0.054 absorbance units
18 hrs (d), 1:10-diluted sample, lipid conc. 0, dermatoxin mass 3.3 × 10^−6 mg, with phosphatase
  Absorbance at 538 nm (cytolytic peptide activity): 0.053 absorbance units
18 hrs (d), 1:10-diluted sample, lipid conc. 0, dermatoxin mass 3.3 × 10^−6 mg, without phosphatase
  Absorbance at 538 nm (cytolytic peptide activity): 0.052 absorbance units
18 hrs (d), 1:10-diluted sample, lipid conc. 0, dermatoxin mass 3.3 × 10^−7 mg, with phosphatase
  Absorbance at 538 nm (cytolytic peptide activity): 0.052 absorbance units
18 hrs (d), 1:10-diluted sample, lipid conc. 0, dermatoxin mass 3.3 × 10^−7 mg, without phosphatase
  Absorbance at 538 nm (cytolytic peptide activity): 0.054 absorbance units
18 hrs (d), 1:10-diluted sample, lipid conc. 0, dermatoxin mass 3.3 × 10^−8 mg, with phosphatase
  Absorbance at 538 nm (cytolytic peptide activity): 0.054 absorbance units
18 hrs (d), 1:10-diluted sample, lipid conc. 0, dermatoxin mass 3.3 × 10^−8 mg, without phosphatase
  Absorbance at 538 nm (cytolytic peptide activity): 0.053 absorbance units
18 hrs (d), 1:10-diluted sample, lipid conc. 0, dermatoxin mass 3.3 × 10^−9 mg, with phosphatase
  Absorbance at 538 nm (cytolytic peptide activity): 0.053 absorbance units
18 hrs (d), 1:10-diluted sample, lipid conc. 0, dermatoxin mass 3.3 × 10^−9 mg, without phosphatase
  Absorbance at 538 nm (cytolytic peptide activity): 0.053 absorbance units
18 hrs (d), 1:10-diluted sample, lipid conc. 0.004, dermatoxin mass 3.3 × 10^−5 mg, with phosphatase
  Absorbance at 538 nm (cytolytic peptide activity): 0.092 absorbance units
18 hrs (d), 1:10-diluted sample, lipid conc. 0.004, dermatoxin mass 3.3 × 10^−5 mg, without phosphatase
  Absorbance at 538 nm (cytolytic peptide activity): 0.096 absorbance units
18 hrs (d), 1:10-diluted sample, lipid conc. 0.004, dermatoxin mass 3.3 × 10^−6 mg, with phosphatase
  Absorbance at 538 nm (cytolytic peptide activity): 0.090 absorbance units
18 hrs (d), 1:10-diluted sample, lipid conc. 0.004, dermatoxin mass 3.3 × 10^−6 mg, without phosphatase
  Absorbance at 538 nm (cytolytic peptide activity): 0.081 absorbance units
18 hrs (d), 1:10-diluted sample, lipid conc. 0.004, dermatoxin mass 3.3 × 10^−7 mg, with phosphatase
  Absorbance at 538 nm (cytolytic peptide activity): 0.066 absorbance units
18 hrs (d), 1:10-diluted sample, lipid conc. 0.004, dermatoxin mass 3.3 × 10^−7 mg, without phosphatase
  Absorbance at 538 nm (cytolytic peptide activity): 0.056 absorbance units
18 hrs (d), 1:10-diluted sample, lipid conc. 0.004, dermatoxin mass 3.3 × 10^−8 mg, with phosphatase
  Absorbance at 538 nm (cytolytic peptide activity): 0.063 absorbance units
18 hrs (d), 1:10-diluted sample, lipid conc. 0.004, dermatoxin mass 3.3 × 10^−8 mg, without phosphatase
  Absorbance at 538 nm (cytolytic peptide activity): 0.054 absorbance units
18 hrs (d), 1:10-diluted sample, lipid conc. 0.004, dermatoxin mass 3.3 × 10^−9 mg, with phosphatase
  Absorbance at 538 nm (cytolytic peptide activity): 0.062 absorbance units
